# Source: paper PMC12796071, “Evaluation of [^18F]MNI-1054, a novel PET ligand for lysine-specific histone demethylase 1A (LSD1), in non-human primates” (EJNMMI Research, 2025)
# “And” between values parts separate entries of the source, which are not always exact repeats. Equal entries are not always repeated. “Also recorded” adds a separate entry of the source.
# Experiment: Whole-body PET biodistribution and radiation dosimetry (OLINDA 2.0)
# Type: in vivo
# Conditions: for Dose, Urinary bladder wall: no-bladder-void model; for whole-body effective dose, ED (ICRP-103): scaled from NHP to human
# Description: Dynamic whole-body PET was conducted in one male (M3, 15.4 kg) and one female (M4, 6.8 kg) rhesus to study the biodistribution and radiation dosimetry of [^18F]MNI-1054. Whole-body images were acquired over ~4 h (17–19 passes, 4 bed positions) using a Biograph mCT PET/CT scanner (Siemens). The images in the series were subsequently reconstructed in 400 × 400 × 300 pixel arrays with pixel size: 2 × 2 × 2 mm^3 using the iterative True-X algorithm (4 iterations, 21 subsets) provided by the camera manufacturer, incorporating point spread function modeling and corrections for random, scatter, normalization, dead-time and attenuation. Prior to PET, each animal received a whole-body CT for correcting attenuation and scatter as well as to assist in anatomical localization of organs of interest.
# Reconstructed whole-body PET volumes were transferred to PMOD software (PMOD Technologies, Zurich, Switzerland) for analysis. Decay correction was first removed to facilitate the calculation of radioactive disintegrations from dynamic data. Images were reviewed for assessment of body organ radioactivity distribution. VOIs were manually drawn to capture the following organs: brain, heart wall, lungs, gallbladder, liver, kidneys, spleen, testes (male), urinary bladder, back vertebrae, and intestines, and defined dynamically to account for any animal movement or shift in organ position or shape between acquisitions. Total activity (kBq) within each VOI was determined and organ TACs were generated and expressed as percent of the injected activity.
# The number of disintegrations per unit activity administered in each source organ (i.e., the “residence times” or “time-integrated activity coefficients”), τ, were computed from the areas under the non-decay corrected TACs via the trapezoidal method. The area under the curve from the end of imaging to infinity was calculated with the assumption of physical decay only following the last imaging time point. Residence times were converted to adult human values using conversion factors based on differences in organ and body weights between both species. The ICRP 100 HAT gastrointestinal (GI) tract model was applied to estimate residence times in the left, right, and sigmoid (i.e., rectum) colon and small intestine, with the assumption that activity entered the GI tract via the small intestine with no reabsorption. The intestinal decay-corrected time-activity curve was used for estimating the fraction of the radioactivity entering the intestine during imaging. Red marrow residence times were calculated based on assumption that vertebrae contain ~40% of total red marrow.
# OLINDA 2.0 software (Hermes Medical Solutions) was used to estimate the organ and whole-body radiation absorbed doses. OLINDA 2.0 performs internal dose calculations based on MIRD and Radiation Dose Assessment Resource (RADAR) methodology. ICRP-89 adult male (73 kg) and female (60 kg) models were used to calculate the s-factors. All other MIRD assumptions about the homogeneity of source organ distribution were employed. The effective doses were computed with biological tissue weighting factors defined in the ICRP Publication 103 [26].
compound,measurement,setting,value
Cc1cc([18F])ncc1C(=O)Nc1ccc([C@@H]2C[C@H]2NCC2CC2)cc1 [[^18F]MNI-1054],"Dose, Adrenals",ICRP-89 adult female model,2.24E-02 mSv/MBq
same,"Dose, Brain",ICRP-89 adult female model,1.22E-02 mSv/MBq
same,"Dose, Breasts",ICRP-89 adult female model,1.06E-02 mSv/MBq
same,"Dose, Esophagus",ICRP-89 adult female model,1.75E-02 mSv/MBq
same,"Dose, Eyes",ICRP-89 adult female model,9.29E-03 mSv/MBq
same,"Dose, Gallbladder wall",ICRP-89 adult female model,2.88E-01 mSv/MBq
same,"Dose, Heart wall",ICRP-89 adult female model,4.98E-02 mSv/MBq
same,"Dose, Kidneys",ICRP-89 adult female model,5.28E-02 mSv/MBq
same,"Dose, Left colon",ICRP-89 adult female model,3.02E-02 mSv/MBq
same,"Dose, Liver",ICRP-89 adult female model,2.29E-02 mSv/MBq
same,"Dose, Lungs",ICRP-89 adult female model,6.16E-02 mSv/MBq
same,"Dose, Osteogenic cells",ICRP-89 adult female model,1.36E-02 mSv/MBq
same,"Dose, Ovaries",ICRP-89 adult female model,1.66E-02 mSv/MBq
same,"Dose, Pancreas",ICRP-89 adult female model,2.12E-02 mSv/MBq
same,"Dose, Rectum",ICRP-89 adult female model,1.88E-02 mSv/MBq
same,"Dose, Red marrow",ICRP-89 adult female model,2.01E-02 mSv/MBq
same,"Dose, Right colon",ICRP-89 adult female model,6.29E-02 mSv/MBq
same,"Dose, Salivary glands",ICRP-89 adult female model,1.01E-02 mSv/MBq
same,"Dose, Small intestine",ICRP-89 adult female model,6.01E-02 mSv/MBq
same,"Dose, Spleen",ICRP-89 adult female model,2.77E-02 mSv/MBq
same,"Dose, Stomach wall",ICRP-89 adult female model,1.69E-02 mSv/MBq
same,"Dose, Thymus",ICRP-89 adult female model,1.88E-02 mSv/MBq
same,"Dose, Thyroid",ICRP-89 adult female model,1.32E-02 mSv/MBq
same,"Dose, Total body",ICRP-89 adult female model,1.53E-02 mSv/MBq
same,"Dose, Uterus",ICRP-89 adult female model,1.92E-02 mSv/MBq
same,"Dose, Urinary bladder wall",ICRP-89 adult female model,5.92E-02 mSv/MBq
same,"whole-body effective dose, ED (ICRP-103)",ICRP-89 adult female model,0.0272 mSv/MBq and 2.72E-02 mSv/MBq
same,"Dose, Adrenals",ICRP-89 adult male model,1.87E-02 mSv/MBq
same,"Dose, Brain",ICRP-89 adult male model,9.69E-03 mSv/MBq
same,"Dose, Esophagus",ICRP-89 adult male model,1.49E-02 mSv/MBq
same,"Dose, Eyes",ICRP-89 adult male model,7.78E-03 mSv/MBq
same,"Dose, Gallbladder wall",ICRP-89 adult male model,6.57E-02 mSv/MBq
same,"Dose, Heart wall",ICRP-89 adult male model,4.90E-02 mSv/MBq
same,"Dose, Kidneys",ICRP-89 adult male model,4.63E-02 mSv/MBq
same,"Dose, Left colon",ICRP-89 adult male model,1.62E-02 mSv/MBq
same,"Dose, Liver",ICRP-89 adult male model,3.02E-02 mSv/MBq
same,"Dose, Lungs",ICRP-89 adult male model,4.01E-02 mSv/MBq
same,"Dose, Osteogenic cells",ICRP-89 adult male model,1.21E-02 mSv/MBq
same,"Dose, Pancreas",ICRP-89 adult male model,1.48E-02 mSv/MBq
same,"Dose, Prostate",ICRP-89 adult male model,1.78E-02 mSv/MBq
same,"Dose, Rectum",ICRP-89 adult male model,1.60E-02 mSv/MBq
same,"Dose, Red marrow",ICRP-89 adult male model,1.65E-02 mSv/MBq
same,"Dose, Right colon",ICRP-89 adult male model,2.37E-02 mSv/MBq
same,"Dose, Salivary glands",ICRP-89 adult male model,9.10E-03 mSv/MBq
same,"Dose, Small intestine",ICRP-89 adult male model,2.08E-02 mSv/MBq
same,"Dose, Spleen",ICRP-89 adult male model,1.84E-02 mSv/MBq
same,"Dose, Stomach wall",ICRP-89 adult male model,1.42E-02 mSv/MBq
same,"Dose, Testes",ICRP-89 adult male model,3.17E-02 mSv/MBq
same,"Dose, Thymus",ICRP-89 adult male model,1.44E-02 mSv/MBq
same,"Dose, Thyroid",ICRP-89 adult male model,1.14E-02 mSv/MBq
same,"Dose, Total body",ICRP-89 adult male model,1.16E-02 mSv/MBq
same,"Dose, Urinary bladder wall",ICRP-89 adult male model,1.24E-01 mSv/MBq
same,"whole-body effective dose, ED (ICRP-103)",ICRP-89 adult male model,0.0267 mSv/MBq and 2.67E-02 mSv/MBq
same,"Dose, Adrenals",Mean,2.06E-02 mSv/MBq
same,"Dose, Brain",Mean,1.09E-02 mSv/MBq
same,"Dose, Breasts",Mean,1.06E-02 mSv/MBq
same,"Dose, Esophagus",Mean,1.62E-02 mSv/MBq
same,"Dose, Eyes",Mean,8.54E-03 mSv/MBq
same,"Dose, Gallbladder wall",Mean,0.18 mSv/MBq and 0.177 mSv/MBq and 1.77E-01 mSv/MBq
same,"Dose, Heart wall",Mean,4.94E-02 mSv/MBq
same,"Dose, Kidneys",Mean,4.96E-02 mSv/MBq
same,"Dose, Left colon",Mean,2.32E-02 mSv/MBq
same,"Dose, Liver",Mean,2.66E-02 mSv/MBq
same,"Dose, Lungs",Mean,5.09E-02 mSv/MBq
same,"Dose, Osteogenic cells",Mean,1.29E-02 mSv/MBq
same,"Dose, Ovaries",Mean,1.66E-02 mSv/MBq
same,"Dose, Pancreas",Mean,1.80E-02 mSv/MBq
same,"Dose, Prostate",Mean,1.78E-02 mSv/MBq
same,"Dose, Rectum",Mean,1.74E-02 mSv/MBq
same,"Dose, Red marrow",Mean,1.83E-02 mSv/MBq
same,"Dose, Right colon",Mean,4.33E-02 mSv/MBq
same,"Dose, Salivary glands",Mean,9.60E-03 mSv/MBq
same,"Dose, Small intestine",Mean,4.05E-02 mSv/MBq
same,"Dose, Spleen",Mean,2.31E-02 mSv/MBq
same,"Dose, Stomach wall",Mean,1.56E-02 mSv/MBq
same,"Dose, Testes",Mean,3.17E-02 mSv/MBq
same,"Dose, Thymus",Mean,1.66E-02 mSv/MBq
same,"Dose, Thyroid",Mean,1.23E-02 mSv/MBq
same,"Dose, Total body",Mean,1.35E-02 mSv/MBq
same,"Dose, Uterus",Mean,1.92E-02 mSv/MBq
same,"Dose, Urinary bladder wall",Mean,0.0916 mSv/MBq and 9.16E-02 mSv/MBq
same,"whole-body effective dose, ED (ICRP-103)",Mean,2.70E-02 mSv/MBq
same,whole-body effective dose per 185 MBq injected,female value,5.03 mSv
same,maximal dose allowed for a single study per 21 CFR § 361.1,gallbladder wall as the dose-limiting organ,282.5 MBq
same,elimination pathways,whole-body imaging,eliminated via both hepatobiliary and urinary pathways; also recorded: urinary (primary) and hepatobiliary pathways
